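Dose response: 5 concentrations. Exposure: 48 h. Format: 96-well plates. Endpoint: linear interpolation; highest concentration if not reached. GI50 marks 50% less growth.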 Activity calls are given as the source filed them. Rule as the data show it: active = GI50 up to about 1.1 µM and inactive = higher.
Key:
Assay in all cases: NCI-60 cell line screen, 48 h
786-0 = tested on: 786-0
SN12C = tested on: SN12C
UO-31 = tested on: UO-31
OVCAR-5 = tested on: OVCAR-5
SF-295 = tested on: SF-295
COLO 205 = tested on: COLO 205
OVCAR-8 = tested on: OVCAR-8
M14 = tested on: M14
KM12 = tested on: KM12
HT-29 = tested on: HT-29
SNB-19 = tested on: SNB-19
A498 = tested on: A498
RXF 393 = tested on: RXF 393
NCI-H226 = tested on: NCI-H226
TK-10 = tested on: TK-10
IGROV-1 = tested on: IGROV-1
OVCAR-3 = tested on: OVCAR-3
SW-620 = tested on: SW-620
HOP-92 = tested on: HOP-92
SK-MEL-2 = tested on: SK-MEL-2

Measured: GI50

O=c1[nH]nc(-c2ccccc2)n1/N=C/c1ccccc1Cl
inactive: 786-0 32.5 µM | SN12C 48.8 µM | UO-31 42.8 µM | OVCAR-5 > 100 µM | SF-295 34 µM | COLO 205 37.1 µM | OVCAR-8 39.1 µM | M14 35.4 µM | KM12 12 µM | HT-29 28.9 µM | SNB-19 > 100 µM | A498 30.1 µM | RXF 393 25.4 µM | NCI-H226 30.8 µM | TK-10 75.9 µM | IGROV-1 21.8 µM | OVCAR-3 23.8 µM | SW-620 50.7 µM | HOP-92 67.1 µM | SK-MEL-2 18 µM

Cc1ccccc1N1C(=O)C2C=CC(n3[nH]c(=O)n(Cc4ccccc4)c3=O)CC2C1=O (stereo not given)
inactive: 786-0 > 100 µM | SN12C > 100 µM | UO-31 > 100 µM | OVCAR-5 > 100 µM | SF-295 > 100 µM | COLO 205 > 100 µM | OVCAR-8 > 100 µM | M14 > 100 µM | KM12 > 100 µM | HT-29 > 100 µM | SNB-19 > 100 µM | A498 > 100 µM | RXF 393 > 100 µM | NCI-H226 > 100 µM | TK-10 > 100 µM | IGROV-1 > 100 µM | OVCAR-3 > 100 µM | SW-620 > 100 µM | HOP-92 > 100 µM | SK-MEL-2 > 100 µM

CC(C)=CCN1c2ccc(Cl)cc2NC(=O)CC1C (stereo not given)
inactive: 786-0 18.2 µM | SN12C 19.6 µM | UO-31 31.6 µM | OVCAR-5 59.4 µM | SF-295 35.1 µM | COLO 205 21.6 µM | OVCAR-8 19.1 µM | M14 17.8 µM | KM12 28.3 µM | HT-29 17.5 µM | SNB-19 36.9 µM | A498 21.8 µM | RXF 393 24.9 µM | NCI-H226 7.94 µM | TK-10 35.2 µM | IGROV-1 21.8 µM | OVCAR-3 18.3 µM | SW-620 34.4 µM | HOP-92 14.1 µM | SK-MEL-2 20.6 µM

COC(=O)c1cc2c(s1)C(=O)c1ccccc1-2
inactive: 786-0 > 100 µM | SN12C > 100 µM | UO-31 > 100 µM | OVCAR-5 > 100 µM | SF-295 > 100 µM | COLO 205 > 100 µM | OVCAR-8 > 100 µM | M14 > 100 µM | KM12 > 100 µM | HT-29 > 10 µM | SNB-19 > 100 µM | A498 > 100 µM | RXF 393 > 100 µM | NCI-H226 > 100 µM | TK-10 > 100 µM | IGROV-1 > 100 µM | OVCAR-3 > 100 µM | SW-620 > 100 µM | HOP-92 > 100 µM | SK-MEL-2 > 100 µM

Source: ChEMBL document CHEMBL1201862, “PubChem BioAssay data set” (2004)
